Data from patent US7446177B2, “Uses of DC-SIGN and DC-SIGNR for inhibiting hepatitis C virus infection” (Progenics Pharmaceuticals, Inc., priority 2001, dated 2008).
“Also recorded” adds a separate entry of the source.

Assays:
[1] = target: T1, HCV-E2 binding to DC-SIGN-R (Homo sapiens, UniProt Q9H2X3); details: HeLa-DC-SIGN-R cells, 20 beads/cell; mannan 20 ug/ml, antibodies 0.1-10 ug/ml, EDTA or EGTA 5 mM
T1 construct: E2 from Accurate Chemicals, NY Item # 6749; E2 produced in CHO cells
Method: (§1) Carboxylate-modified FluoSpheres® NeutrAvidin™ labeled microspheres (505/515 nm, 1.0 um; Molecular Probes, Eugene, Oreg.) were coated with HCV E2 glycoprotein as described for ICAM-1 beads (Geijtenbeek et al, Blood, 94, 754-764 (1999)). Briefly, NeutrAvidin™-coated beads were sonicated, and washed in PBS/BSA (0.5%). Beads were incubated with biotinylated-Sp-conjugated AffiniPure F(ab′)2 goat anti-mouse IgG F(ab′)2 fragment specific (6 ug/ml in PBS/BSA (0.5%); Jackson Immunoresearch Laboratories, Inc., West Grove, Pa.) for 2 hours at 37° C. After washing, beads were incubated with mouse anti-E2 antibodies (6 ug/ml in PBS/BSA (0.5%)) at 4° C. overnight. The beads were washed and incubated with 250 ng/ml purified HCV E2 produced in CHO cells (Accurate Chemicals, NY) overnight at 4° C.
(§2) This was performed as described by Geijtenbeek et al, (Blood, 94, 754-764 (1999)), with modifications. Cells were removed from culture by cell dissociation solution (Sigma) for 5 minutes at 37° C. and washed three times in adhesion buffer (20 mM Tris-HCl [pH 8.0], 150 mM NaCl, 1 mM CaCl2, 2 mM MgCl2, and 0.5% BSA). Cells were resuspended at a final concentration of 5×10^6 cells/ml in adhesion buffer for 30 minutes at 4° C. to recharge Ca2+ levels. Cells ([…]) were preincubated with mannan (20 ug/ml; Sigma), antibodies (0.1-10 ug/ml), EDTA (5 mM) or EGTA (5 mM) for 10 minutes at room temperature. HCV-E2-coated fluorescent beads (20 beads/cell) were added, and the suspension incubated for 30 minutes at 37° C. Adhesion was determined by measuring the percentage of cells that bound fluorescent beads by flow cytometry using a FACSca (Becton Dickinson, Oxnard, Calif.).
(§3) To determine whether DC-SIGN and DC-SIGN-R bind to HCV-E2 glycoproetin, a flow cytometric adhesion assay (Geijtenbeek et al, Blood, 94, 754-764 (1999)) was adapted. HCV-E2 protein produced in CHO cells was captured on fluorescent beads using a panel of anti-E2 mAbs, which were incubated with DC-SIGN- and DC-SIGN-R-HeLa cells at a ratio of 20 beads per cell.

[2] = target: T2, HCV-E2 binding to DC-SIGN (Homo sapiens, UniProt Q9NNX6); details: HeLa-DC-SIGN cells, 20 beads/cell; mannan 20 ug/ml, antibodies 0.1-10 ug/ml, EDTA or EGTA 5 mM
T2 construct: E2 from Accurate Chemicals, NY Item # 5444; E2 produced in CHO cells
T2 sequence (Q9NNX6 whole entry): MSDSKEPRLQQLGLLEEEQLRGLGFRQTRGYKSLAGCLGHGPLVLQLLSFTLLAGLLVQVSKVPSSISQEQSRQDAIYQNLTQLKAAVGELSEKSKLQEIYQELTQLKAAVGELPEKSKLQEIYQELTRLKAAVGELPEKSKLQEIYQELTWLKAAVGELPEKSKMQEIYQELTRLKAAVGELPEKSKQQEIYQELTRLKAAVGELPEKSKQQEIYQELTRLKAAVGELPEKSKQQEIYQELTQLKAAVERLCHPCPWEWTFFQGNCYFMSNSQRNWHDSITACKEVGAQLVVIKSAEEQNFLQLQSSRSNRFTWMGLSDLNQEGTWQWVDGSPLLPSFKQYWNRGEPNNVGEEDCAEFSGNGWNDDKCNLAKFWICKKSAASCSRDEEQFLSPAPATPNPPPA
Method: as §1, §2, §3

T1 sequence (Q9H2X3 whole entry): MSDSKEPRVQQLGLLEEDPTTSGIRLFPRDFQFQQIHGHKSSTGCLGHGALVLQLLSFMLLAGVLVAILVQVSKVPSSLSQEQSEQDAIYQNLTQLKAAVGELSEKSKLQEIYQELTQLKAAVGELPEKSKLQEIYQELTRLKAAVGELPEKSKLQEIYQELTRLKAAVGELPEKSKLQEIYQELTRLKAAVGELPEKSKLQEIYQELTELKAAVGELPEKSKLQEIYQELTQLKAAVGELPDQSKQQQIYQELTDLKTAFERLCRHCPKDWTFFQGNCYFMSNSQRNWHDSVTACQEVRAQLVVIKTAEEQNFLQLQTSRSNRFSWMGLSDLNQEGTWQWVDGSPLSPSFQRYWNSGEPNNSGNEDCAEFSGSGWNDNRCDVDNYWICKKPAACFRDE

| Compound | Inhibition of adhesion of HCV-E2-coated beads to DC-SIGN-R [1] | Inhibition of adhesion of HCV-E2-coated beads to DC-SIGN [2] |
| --- | --- | --- |
| O=C(O)CN(CCN(CC(=O)O)CC(=O)O)CC(=O)O [EDTA] | efficiently inhibited | efficiently inhibited |
| mannan | inhibit; also recorded: efficiently inhibited; also recorded: blocked | inhibit; also recorded: efficiently inhibited; also recorded: blocked |
| O=C(O)CN(CCOCCOCCN(CC(=O)O)CC(=O)O)CC(=O)O [EGTA] | efficiently inhibited | efficiently inhibited |
